Laboratory results published in patent US7576128B2 (priority 2004, dated 2009).
Positions count from the first letter of the chain named. Where two headings read alike, the source gives them in different places.

Key:
[1] = target: T1, hAR (human androgen receptor) (Homo sapiens, UniProt P10275); assay: Competitive binding analysis on baculovirus/Sf9 generated hAR extracts with 3H-DHT tracer
T1 construct: made in house; host or cells: baculovirus/Sf9 insect cells
T1 sequence (P10275 1-920): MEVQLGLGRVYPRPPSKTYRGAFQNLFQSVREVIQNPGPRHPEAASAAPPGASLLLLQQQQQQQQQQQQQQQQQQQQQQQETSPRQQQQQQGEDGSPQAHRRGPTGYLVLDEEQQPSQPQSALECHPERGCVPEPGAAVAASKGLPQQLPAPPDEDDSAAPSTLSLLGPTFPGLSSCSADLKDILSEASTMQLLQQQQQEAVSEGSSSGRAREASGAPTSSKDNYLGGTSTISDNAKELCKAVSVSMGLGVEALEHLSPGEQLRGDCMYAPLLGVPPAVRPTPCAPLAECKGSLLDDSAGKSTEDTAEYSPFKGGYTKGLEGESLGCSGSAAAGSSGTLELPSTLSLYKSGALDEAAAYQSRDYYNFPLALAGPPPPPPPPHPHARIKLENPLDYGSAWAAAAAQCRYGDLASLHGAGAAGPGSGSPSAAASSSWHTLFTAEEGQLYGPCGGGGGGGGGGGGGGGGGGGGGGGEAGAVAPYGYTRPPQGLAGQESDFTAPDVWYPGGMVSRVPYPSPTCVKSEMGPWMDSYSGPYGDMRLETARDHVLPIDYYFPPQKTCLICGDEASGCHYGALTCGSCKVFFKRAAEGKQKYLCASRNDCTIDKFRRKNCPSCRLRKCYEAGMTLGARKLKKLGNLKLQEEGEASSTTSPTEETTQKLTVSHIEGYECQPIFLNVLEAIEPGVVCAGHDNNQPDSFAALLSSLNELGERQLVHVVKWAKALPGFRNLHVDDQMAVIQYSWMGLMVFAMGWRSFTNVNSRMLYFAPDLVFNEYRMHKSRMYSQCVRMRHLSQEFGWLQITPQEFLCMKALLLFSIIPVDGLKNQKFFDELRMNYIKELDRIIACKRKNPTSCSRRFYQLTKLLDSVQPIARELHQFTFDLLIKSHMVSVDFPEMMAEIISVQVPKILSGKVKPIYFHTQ
Method: The description below describes how the assay was carried out.
Competitive binding analysis was performed on baculovirus/Sf9 generated hAR extracts in the presence or absence of different concentrations of test agent and a fixed concentration of ^3H-dihydrotestosterone (^3H-DHT) as tracer. This binding assay method is a modification of a protocol previously described (Liao S., et. al. J. Steroid Biochem. 20:11-17 1984). Briefly, progressively decreasing concentrations of compounds are incubated in the presence of hAR extract (Chang et al. P.N.A.S. Vol. 89, pp. 5546-5950,1992), hydroxylapatite, and 1 nM ^3 H-DHT for one hour at 4° C. Subsequently, the binding reactions are washed three times to completely remove excess unbound ^3 H-DHT. hAR bound ^3H-DHT levels are determined in the presence of compounds (=i.e competitive binding) and compared to levels bound when no competitor is present (=i.e. maximum binding). Compound binding affinity to the hAR is expressed as the concentration of compound at which one half of the maximum binding is inhibited.

[2] = target: T2, androgen receptor (Homo sapiens, UniProt P10275); assay: AR antagonist cell assay, MDA-MB453-MMTV clone 54-19 luciferase reporter; format: cell-based
T2 sequence (P10275 1-920 Q868H): T1 sequence (P10275 1-920) with Q868H
Method: The compounds ability to antagonize the effects of androgen on the androgen receptor were determined in a whole cell assay as described immediately below.
This cell line is a stable transfected cell line with MDA-MB453 cell background (a human breast tumor cell line expressing androgen receptor). A MMTV minimal promoter containing ARE was first cloned in front of a firefly luciferase reporter gene. Then the cascade was cloned into transfection vector pUV120puro. Electroporation method was used for transfecting MDA-MB-453 cell. Puromycin resistant stable cell line was selected.
• 1. Cells are maintained in culture medium, splitting cells when they reach 80-90% confluence • 2. To test compounds, 10,000 cells/well are plated to opaque 96 cell culture plate in 100 ul/well plating medium, culture for overnight at 37° C. in cell culture incubator • 3. Carefully remove plating medium, then add 80 ul/well of pre-warmed assay medium, add 10 ul/well testing compound (final concentration at) 1000 nM, 200 nM, 40 nM, 8 nM, 1.6 nM, and 0.32 nM), incubate at 37° C. for 30 minutes • 4. Add 10 ul/well freshly prepared DHT (final concentration at 100 pM) to each well, incubate at 37° C. for 17 hr (overnight) • 5.
The results are reported as the mean of multiple tests as described below (the numbers of tests are indicated in the footnote). N.D. denotes that the compound was not tested.

[3] = hAR extract, 1 nM 3H-DHT, one hour at 4° C., mean of multiple tests, read-out: AR Binding IC50
[4] = MDA-MB453-MMTV clone 54-19, 100 pM DHT, 17 hr; mean of multiple tests; read-out: AR Cell IC50
[5] = read-out: AR Cell IC50; MDA-MB453-MMTV clone 54-19, 100 pM DHT, 17 hr; mean of multiple tests

Compound	IC50 [1, 3]	IC50 [2, 4]	IC50 ([1]; read-out: AR Binding IC50)	other results
CC(C)CCCC(O)COc1ccc(C#N)c(C(F)(F)F)c1 (stereo not drawn) [Example 4, 4-(2-Hydroxy-6-methyl-heptyloxy)-2-tri-fluoromethyl-benzonitrile]	442 nM	> 1000 nM		
CCCCCCC(O)COc1ccc(C#N)c(C(F)(F)F)c1 (stereo not drawn) [Example 5, 4-(2-Hydroxy-octyloxy)-2-tri-fluoromethyl-benzonitrile]		509 nM	32 nM	
C=CCCCCC(O)COc1ccc(C#N)c(C(F)(F)F)c1 (stereo not drawn) [Example 6, 4-(2-Hydroxy-oct-7-enyl-oxy)-2-tri-fluoromethyl-benzonitrile]	415 nM	662 nM		
CC(O)CCOc1ccc(C#N)c(C(F)(F)F)c1 (stereo not drawn) [Example 7, 4-(3-Hydroxy-butoxy)-2-tri-fluoromethyl-benzonitrile]	274 nM	> 1000 nM		
C[C@H](O)CCOc1ccc(C#N)c(C(F)(F)F)c1 [Example 8, (3S)-4-(3-Hydroxy-butoxy)-2-tri-fluoromethyl-benzonitrile]	213 nM	> 1000 nM		
C=CCC(O)CCOc1ccc(C#N)c(C(F)(F)F)c1 (stereo not drawn) [Example 9, 4-(3-Hydroxy-hex-5-enyl-oxy)-2tri-fluoromethyl-benzonitrile]	268 nM			
CC(O)C(C)COc1ccc(C#N)c(C(F)(F)F)c1 (stereo not drawn) [Example 10, 4-(3-Hydroxy-2-meth-yl-butoxy)-2-tri-fluoromethyl-benzonitrile]		274 nM	70 nM	
CC(C)(CO)COc1ccc(C#N)c(C(F)(F)F)c1 [Example 11, 4-(3-Hydroxy-2,2-di-methyl-propoxy)-2-tri-fluoromethyl-benzonitrile]	706 nM			
CC(C)(O)CCOc1ccc(C#N)c(C(F)(F)F)c1 [Example 12, 4-(3-Hydroxy-3-meth-yl-butoxy)-2-tri-fluoromethyl-benzonitrile]		269 nM	27 nM	
CC(C)C(O)C(C)(C)COc1ccc(C#N)c(C(F)(F)F)c1 (stereo not drawn) [Example 13, 4-(3-Hydroxy-2,2,4-tri-methyl-pentyloxy)-2-tri-fluoromethyl-benzonitrile]	442 nM			
CCCC(O)C(CC)COc1ccc(C#N)c(C(F)(F)F)c1 (stereo not drawn) [Example 14, 4-(2-Ethyl-3-Hy-droxy-hexyl-oxy)-2-tri-fluoromethyl-benzonitrile]	260 nM	794 nM		
C[C@H](O)C[C@H](C)Oc1ccc(C#N)c(C(F)(F)F)c1 [Example 16, (1S,3S)-4-(3-Hy-droxy-1-methyl-bu-toxy)-2-tri-fluoromethyl-benzonitrile]		> 1000 nM		IC50 [1]: 6 nM
C[C@H](C[C@@H](C)O)Oc1ccc(C#N)c(C(F)(F)F)c1 [Example 17, (1R,3R)-4-(3-Hy-droxy-1-methyl-butoxy)-2-tri-fluoromethyl-benzonitrile]		807 nM		IC50 [1]: 107 nM
N#Cc1ccc(OCCCCO)cc1C(F)(F)F [Example 18, 4-(4-Hydroxy-butoxy)-2-tri-fluoromethyl-benzonitrile]		398 nM	74 nM	
CC(O)CCCOc1ccc(C#N)c(C(F)(F)F)c1 (stereo not drawn) [Example 19]			505 nM	IC50 [2, 5]: > 1000 nM
CCCC(O)CCCOc1ccc(C#N)c(C(F)(F)F)c1 (stereo not drawn) [Example 20, 4-(4-Hydroxy-heptyloxy)-2-tri-fluoromethyl-benzontrile]	243 nM	498 nM		
CCCC(CCCO)Oc1ccc(C#N)c(C(F)(F)F)c1 (stereo not drawn) [Example 21, 4-(4-Hydroxy-1-pro-pyl-butoxy)-2-tri-fluoromethyl-benzonitrile]			808 nM	
CC(O)CCC(C)Oc1ccc(C#N)c(C(F)(F)F)c1 (stereo not drawn) [Example 22, 4-(4-Hydroxy-1-meth-yl-pentyloxy)-2-tri-fluoromethyl-benzonitrile]	185 nM			IC50 [2, 5]: > 1000 nM
N#Cc1ccc(OCCCCCO)cc1C(F)(F)F [Example 24, 4-(5-Hydroxy-pentyloxy)-2-tri-fluoromethyl-benzonitrile]	632 nM	> 1000 nM		
CC(O)CCCCOc1ccc(C#N)c(C(F)(F)F)c1 (stereo not drawn) [Example 25, 4-(5-Hydroxy-hexyloxy)-2-tri-fluoromethyl-benzonitrile]	504 nM	838 nM		
CC(CCO)CCOc1ccc(C#N)c(C(F)(F)F)c1 (stereo not drawn) [Example 26, 4-(5-Hydroxy-3-meth-yl-pentyloxy)-2-tri-fluoromethyl-benzonitrile]			777 nM	
CC(O)CCC(C)Oc1ccc(C#N)c(Cl)c1 (stereo not drawn) [Example 28, 2-Chloro-4-(4-hydroxy-1-methyl-pentyloxy)-benzonitrile]		263 nM	49 nM	
N#Cc1ccc(OCCCO)cc1Cl [Example 29, 2-Chloro-4-(3-hydroxy-propoxy)-benzonitrile]			394 nM	
N#Cc1ccc(OCCCCO)cc1Cl [Example 30, 2-Chloro-4-(4-hydroxy-butoxy)-benzonitrile]			99 nM	
C=CC(CO)Oc1ccc(C#N)c(Cl)c1 (stereo not drawn) [Example 31, 2-Chloro-4-(1-hydroxymethyl-allyloxy)-benzonitrile]	156 nM			
